How the values were obtained:
[1] = test system: S. coelicolor M751 (ΔscbA)
[2] = test system: S. coelicolor M751 (ΔscbA); remark: listed apart in the source
Protocol: (§1) Bioassay using spore suspension of M145(top), M751(left bottom) and M752(right bottom) as indicator strain and spotted with 1 μg of SCB1. The plates were incubated at 30° C. for 20 h (left panel) or 40 h (right panel).
(§2) γ-butyrolactones were isolated from liquid or solid media by extracting the culture supernant or the agar with ethylacetate. The ethylacetate was evaporated and the sample was resuspended in 100% methanol for use in a bioassay or for HPLC analysis. Bioassay and HPLC analysis were conducted as described previously (Takano et al., 2000).

S. coelicolor M145 = test system: S. coelicolor M145
Protocol: as §1, §2

[3] = test system: S. coelicolor M752 (ΔscbR)
Protocol: as §1, §2

Chain of ScbR (as listed by the source): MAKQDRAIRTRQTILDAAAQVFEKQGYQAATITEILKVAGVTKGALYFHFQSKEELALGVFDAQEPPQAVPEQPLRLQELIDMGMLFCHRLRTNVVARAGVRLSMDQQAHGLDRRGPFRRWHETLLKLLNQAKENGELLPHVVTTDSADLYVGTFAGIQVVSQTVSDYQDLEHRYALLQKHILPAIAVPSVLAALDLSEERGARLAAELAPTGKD

Compound	Formation of the DNA-protein complex (DNA-binding activity of ScbR) (ScbR)	Level of scbR transcription [1]	scbA transcription [1]	Effect of high concentrations of SCB1 on antibiotic production (lighter halo around the point of application) [2]	Response to exogenous SCB1 (antibiotic production in lawn) (S. coelicolor M145)	Response to exogenous SCB1 (antibiotic production in lawn) [3]
2-isocaryloyl-3R-hydroxymethyl-γ-butyrolactone [A-factor]	failed to inhibit					
CC(C)CCCC[C@@H](O)[C@@H]1C(=O)OC[C@H]1CO [SCB1]		marked increase	not restored	inhibitory effect	responded in the expected way	did not respond
